Test system: Molm 13-RES-luc cells that expressed FLT3-ITD/D835Y
Assay: MTT assay in tandutinib-resistant Molm 13-RES-luc cells
Format: cell-based
Details: Homo sapiens, tandutinib resistant Molm 13 cells, mean of 3 studies with 6 replicates each (n=18), read-out: IC50 pFLT3 (text: cell viability, MTT assay)

IC50: 3.3 nM
Compound: CC1(COc2ccc3c(c2)ncn3-c2ccc3cccc(N4CCC(N)CC4)c3n2)COC1 [Crenolanib, reference compound]

Source: patent publication US10463658B2, “Method of inhibiting FLT3 kinase” (AROG Pharmaceuticals, LLC, priority 2013, dated 2019)
